Experimental data published in US12409206B2, “Use of cyclosporine analogues for treating fibrosis” (Hepion Pharmaceuticals, Inc., priority 2020, dated 2025).

Experiments:
[1] = system: human precision cut liver slices (PCLS); experiment: PCLS gene expression by RT-PCR; assay type: cell-based
Method: (§1) PCLS were obtained from 5 human donors who underwent resection of liver cancer. Replicate slices were collected from healthy margins of the resections and cultured for 4 or 6 days depending on the experimental protocol. In the Nonstimulation Protocol slices were cultured for 6 days and treated for the entire period with DMSO vehicle or 5 μM CRV431. In the Stimulation Protocol slices were rested for 1 day and then administered the cytokines, TGFβ and PDGF-BB, for 3 days to stimulate inflammation and fibrosis. DMSO vehicle, CRV431 (1 and 5 μM), Alk5i (10 μM), obeticholic acid (5 μM), elafibranor (5 μM), resmetirom ([…]), and Aramchol (5 μM) were administered individually as drug treatments in the Stimulation Protocol concurrent with TGFβ+PDGF-BB. Culture medium treatments were replaced daily.
(§2) Four types of evaluations were conducted on the PCLS: (a) secretion of inflammation and fibrosis biomarkers into the culture medium, (b) histological staining and quantitation of Sirius red as a measure of tissue fibrosis, (c) gene expression of inflammation and fibrosis biomarkers by RT-PCR, and (d) RNA sequencing (RNA-Seq) of the complete transcriptome. Each of the four types of evaluation is described below: • (a) Biomarker secretion. Spent culture medium was collected daily from duplicate slices for each treatment. ELISAs were used to quantify secretion of monocyte chemoattractant protein (MCP-1), interleukin-6 (IL-6), tissue inhibitor of metalloproteinase-1 (TIMP1), hyaluronic acid, fibronectin, and collagen 1α1. For each donor the mean level of biomarker secretion in each treatment group was expressed as a percentage change relative to DMSO vehicle, the percentages averaged for all donors, and finally the mean daily percentage change calculated from all days of evaluation. […] Sirius red was quantified morphometrically in the histological sections as the percentage area with Sirius red staining in 10 sections from each treatment. In the Nonstimulation Protocol the quantity of Sirius red staining was expressed relative to the vehicle group. In the Stimulation Protocol the quantity of Sirius red staining was expressed relative to nonstimulated PCLS (0%) and TGFβ+PDGF-BB-stimulated+vehicle PCLS (100%). […] RNA was isolated from duplicate liver slices per treatment at the end of the experiments and evaluated by RT-PCR for 5 markers of inflammation and fibrosis: MCP-1, IL-6, TIMP1, αSMA, and collagen 1α1. β actin was used as a reference gene to calculate relative levels of each target gene RNA. […] RNA sequencing of the complete transcriptome (30 million reads per sample) was conducted on vehicle and 5 μM CRV431 treatment groups from 3 donors both from the Nonstimulation and Stimulation Protocols. […]

[2] = system: mouse unilateral ureteral obstruction (UUO) model of kidney fibrosis; experiment: Mouse unilateral ureteral obstruction (UUO) model of kidney fibrosis, Sirius red; assay type: in vivo, C57BL/6 mice; settings: 50 mg/kg/day daily oral gavage for 13 days; vs vehicle; per-section and per-animal; one-way ANOVA with Tukey
Method: This example describes a study conducted in the mouse unilateral ureteral obstruction (UUO) model of kidney fibrosis. Seven-week-old female C57BL/6 mice were used in this study (n=8 mice per group). Sham group mice received no UUO. The remaining mice underwent complete surgical ligation of the left ureter. Vehicle and CRV431 at 50 mg/kg/day were administered by daily oral gavage for 13 days starting on the day of surgery. Mice were sacrificed on Day 14, and left kidneys were processed histologically and stained for fibrotic collagen with Sirius red. The percentage of each histological section with Sirius red staining was measured morphometrically in 5 sections from each kidney. Results are shown in FIG. 7A (showing Sirius red in individual tissue sections) and 7B (showing Sirius red in individual mice (5 tissue sections per mouse)).

[3] = system: Human LX-2 Hepatic Stellate Cells; experiment: Cell viability analysis, LX-2 culture; assay type: cell-based; settings: end of treatment (24 hours)
Method: (§3) Human LX-2 Hepatic Stellate Cells (Millipore-Sigma, Cat. #SCC064) were cultured in 96-well plates. Treatments were applied in triplicate wells (applied 100 ul treatments per well) for 24 hours. Cells were near confluence at the start of treatments. […] Spent culture medium collected at the end of the treatments was assayed for procollagen and fibronectin by enzyme-linked immunosorbent assays (ELISA) (Procollagen ELISA antibody pair (ab216064) and fibronectin ELISA antibody pair (ab222262) from Abcam). Procollagen and fibronectin were not detected in medium not applied to cells. Procollagen and fibronectin levels in the medium are represented by means±SD (bars) from 3 replicate wells (open circles).

[4] = system: experimental models of NASH; settings: cited from earlier work
[5] = system: human precision cut IPF lung slices; experiment: Gene expression (RT-PCR) in precision cut IPF lung slices in culture; assay type: cell-based; settings: CRV431 applied at 5 μM; Day 6 of culture after 4 days of treatment; β actin reference
Method: This example describes a study conducted with precision cut lung slices. Precision cut slices from explanted lung tissue from a patient with biopsy-confirmed, idiopathic pulmonary fibrosis (IPF) were cultured for 6 days. Treatments were applied to 6 replicate slices per treatment on Day 2 of culture and replaced daily on Days 3, 4, and 5 of culture.
For generating the results of gene expression shown in FIG. 6B, RNA was isolated from 6 pooled lung slices per treatment on Day 6 of culture following 4 days of drug or vehicle treatment and evaluated by reverse transcription-polymerase chain reaction (RT-PCR) for 6 markers of inflammation and fibrosis: MCP-1, IL-6, TGFβ TIMP1, collagen 1α1, and α-smooth muscle actin (αSMA). β actin was used as a reference gene to calculate relative levels of each target gene RNA.

[6] = system: human precision cut liver slices (PCLS); experiment: PCLS biomarker secretion (ELISA); assay type: cell-based
Method: as §1, §2

[7] = system: Human renal mesangial cells; experiment: Procollagen and fibronectin ELISA of spent medium, renal mesangial cell culture; assay type: cell-based; settings: medium from Day 2-4 of treatment, both in the absence or presence of 0.4 ng/ml TGFβ
Method: as §3, with “renal mesangial cells (ScienCell,” for “LX-2 Hepatic Stellate Cells (Millipore-Sigma,”, “#4200 (SC))” for “#SCC064)”, “2 days, then re-applied for an additional 2 days.” for “24 hours.”, “from Day 2-4” for “at the end”, “treatment” for “the treatments”

SMILES: CC[C@@H]1NC(=O)[C@H]([C@H](O)[C@H](C)CCCCCCNC(C)=O)N(C)C(=O)[C@H](C(C)C)N(C)C(=O)[C@H](CC(C)C)N(C)C(=O)[C@H](CC(C)C)N(C)C(=O)[C@@H](C)NC(=O)[C@H](C)NC(=O)[C@H](CC(C)C)N(C)C(=O)[C@H](C(C)C)NC(=O)[C@H](CC(C)C)N(C)C(=O)[C@@H](C)N(C)C1=O [CRV431]
- gene expression of all markers ([1]; CRV431 applied at 5 μM, markers MCP-1, IL-6, TIMP1, αSMA, collagen 1α1): decreased
- RNA levels of collagen1α1, αSMA, TIMP1, IL-6, and MCP-1 ([1]; qRT-PCR): reductions in RNA levels
- Sirius red staining (fibrotic collagen) of left kidney [2]: statistically significant decrease
- cell viability [3]: none of the CRV431 treatments affected cell viability
- hepatocellular carcinoma tumor burden [4]: can reduce
- liver fibrosis arising from non-alcoholic steatohepatitis [4]: can reduce
- gene expression of all markers (MCP-1, IL-6, TGFβ, TIMP1, collagen 1α1, αSMA) [5]: decreased
- mean daily secretion of all markers ([6]; CRV431 applied at 5 μM, markers MCP-1, IL-6, TIMP1, hyaluronic acid, fibronectin, collagen 1α1): decreased
- secretion of collagen1α1, fibronectin, hyaluronic acid, IL-6, and MCP-1 ([6]; ELISA): reduced secretion
- abundance of fibronectin in the medium [7]: dose-dependently decreased
- abundance of procollagen in the medium [7]: dose-dependently decreased
